Measurements as given in PMC10868801, “Characterization of covalent inhibitors that disrupt the interaction between the tandem SH2 domains of SYK and FCER1G phospho-ITAM” (PLOS ONE, 2024).
≈ marks a conversion by molar mass, not a printed value. Entries after “also recorded” stand apart in the source; their conditions may differ.

What was measured:
[1] = tested on: SYK-tSH2 domains with a doubly phosphorylated ITAM from a T-cell antigen receptor ζ-chain; parameters: method as in PMID 25287889; conditions: cited from earlier work
[2] = tested on: SYK-tSH2; parameters: method as in PMID 25287889; conditions: mass spectrometry; cited from earlier work
[3] = target: T1, SYK-tSH2 (Homo sapiens, UniProt P43405); assay: Covalent labelling and intact mass spectrometry; type: binding; parameters: tandem SH2 domains of human SYK (residues M6-N269); 6xHis (N, cleaved yes); made in house; host or cells: E. coli BL21(DE3)-R3-pRARE; conditions: for Number of mass adducts on SYK-tSH2 / Covalent modification of SYK-tSH2: 100 μM
Source text: The HTS hits 13 and 37 contain a kojic acid moiety, which is proposed to react covalently with proteins in the literature. As a result, we thought that it was likely these compounds are also reacting covalently with SYK-tSH2. […] When bound to the protein, these kojic acid-derived compounds have a 94 Da decrease in mass due to the loss of the pyridin-2-amine leaving group to reveal a Michael acceptor that can react covalently with cysteine residues (Fig 5B).
To expand on the initial 40 putative hits that were identified via uHTS (Fig 3D), additional commercially available structural analogues were ordered and screened via TR-FRET and differential scanning fluorimetry (DSF) (S1 Table). […] The observation of a substantial reduction in protein melting temperature motivated us to determine if the compounds interacted covalently with the SYK-tSH2 domains. Additionally, since the thiourea in these small molecules is reported to react via oxidation, the compounds could be capable of forming a covalent disulfide bond with cysteine residues on SYK [39]. We used compound 1, which is a known covalent modifier of SYK-tSH2, as a positive control in the mass spectrometry analysis. […] Literature reports support that this type of chemical reaction can occur in DMSO, forming a disulfide bond. […] Like we had originally observed for the older DMSO stock solution of 42 (Fig 6C), 44 forms two to four mass adducts (422 Da and 844 Da) more than the protein mass when incubated SYK-tSH2 for 1 h (Fig 6D). […] Due to the mass adducts of two to four (422 Da and 844 Da), we propose that 44 is forming a disulfide bond with between two or four cysteines on SYK-tSH2 (Fig 6G).

[4] = target: T2, SYK-tSH2 / FCER1G p-ITAM interaction (Homo sapiens, UniProt P43405); assay: TR-FRET assay of 6xHis-SYK-tSH2 with FITC-labeled FCER1G p-ITAM peptide; type: biochemical
T2 construct: the tSH2 domain of SYK (residues M6-N269) fused to an N-terminal 6×His tag; made in house; host or cells: E. coli BL21(DE3)-R3-pRARE
Source text: To facilitate identification of inhibitors of the SYK-FCER1G interaction, we developed a TR-FRET assay using recombinant protein comprising the tSH2 domain of SYK (residues M6-N269) fused to an N-terminal 6×His tag (S1A Fig). The TR-FRET assay is based on the interaction of a FITC-labeled FCER1G p-ITAM peptide to the 6×His-SYK-tSH2 protein in complex with a terbium-conjugated anti-His antibody (Tb-Ab) (Fig 3B). Once excited, a TR-FRET signal is generated from the Tb donor to the FITC acceptor fluorophore. […] To enable uHTS for large scale screening of small molecule libraries, we miniaturized the TR-FRET assay from 96-well plate format to a 1536-well.
TR-FRET experiments were performed in 20 μL reactions, using 384-well shallow-well microplates (PerkinElmer). Final reaction components contained 6xHis-SYK-tSH2 (SYKA-c020 tagged) (4 nM), FITC-conjugated FCER1G peptide (8 nM), Tb-conjugated anti-6xHis antibody (53 ng/ml; Cisbio) in assay buffer containing 25 mM HEPES (pH 7.5), 200 mM NaCl, 0.1% BSA and 0.05% Tween-20. After a 2h incubation (at room temperature), TR-FRET signals were measured on a BMG Labtech PHERAstar FSX reader using a Lanthascreen Optics Module. A 200 μs delay was used after excitation with a flash lamp before measurement of fluorescence emission at […]. TR-FRET ratios of fluorescent intensity at 520 nm to 490 nm were calculated. The half maximal inhibitory concentration (IC50) was determined by fitting a four parametric logistic curve to the data.

[5] = target: T1, SYK-tSH2; assay: Bio-layer interferometry (BLI) direct binding; conditions: BLI KD, biotinylated SYK-tSH2
[6] = LCMS characterization of fresh versus older DMSO stocks; type: physicochemical; conditions: older DMSO stocks versus freshly prepared solutions
Source text: To expand on the initial 40 putative hits that were identified via uHTS (Fig 3D), additional commercially available structural analogues were ordered and screened via TR-FRET and differential scanning fluorimetry (DSF) (S1 Table). […] The observation of a substantial reduction in protein melting temperature motivated us to determine if the compounds interacted covalently with the SYK-tSH2 domains. Additionally, since the thiourea in these small molecules is reported to react via oxidation, the compounds could be capable of forming a covalent disulfide bond with cysteine residues on SYK [39]. We used compound 1, which is a known covalent modifier of SYK-tSH2, as a positive control in the mass spectrometry analysis. […] Literature reports support that this type of chemical reaction can occur in DMSO, forming a disulfide bond. […]
Supplementary file pone.0293548.s005.tiff: S4 Fig Identification of active disulfide compounds which form in DMSO solutions of compounds 42 and 43. […] LCMS Calculated for [M+H]^+ C7H9N4O2S: 213.04; observed: 213.1 [M+H]^+. […] LCMS Calculated for [M+H]^+ C14H15N8O4S2: 423.06; observed: 423.0 [M+H]^+. […] LCMS Calculated for [M+H]^+ C10H15N4O2S: 255.08; observed: 255.1 [M+H]^+. […] LCMS Calculated for [M+H]^+ C20H27N8O4S2: 507.15; observed: 507.1 [M+H]^+. […]

[7] = Kinetic solubility (Analiza, Inc., CLND); type: physicochemical; conditions: phosphate buffered saline, aqueous buffer, kinetic from dmso stock, PBS pH 7.4, 24 h incubation, by Analiza
Procedure: Following 24 h incubation in a Millipore solubility filter plate, samples were vacuum filtered, and the filtrates collected for analysis. Filtrates were injected into the nitrogen detector for quantification via total chemiluminescent nitrogen determination (CLND). Filtrates were quantified with respect to a calibration curve generated using standards that span the dynamic range of the instrument. The reported solubility value has been corrected for background nitrogen present in the media and DMSO.

[8] = target: T3, full length SYK and FCER1G (Homo sapiens, UniProt P43405); assay: GST pull-down (GST-PD) of GST-SYK and FCER1G-Flag from HEK293T cell lysates; type: biochemical; conditions: dose-response format
T3 construct: full length GST-SYK and FCER1G-Flag were co-expressed in HEK293 cells prior to lysis; expressed in transfected cells; host or cells: HEK293T (CRL-3216, ATCC)
Procedure: Pull-down assays were used as an orthogonal assay to determine if the compounds could disrupt the PPI between full length SYK and FCER1G proteins from cell lysates. To optimize GST pulldown assays, full length GST-SYK and FCER1G-Flag were co-expressed in HEK293 cells prior to lysis and the protein expression and cell lysate concentrations tested (Fig 4A). All 40 compounds that progressed from uHTS were tested via GST-PD at a single concentration (100 μM) to determine if they could inhibit the PPI between the full-length proteins, with the p-ITAM FCER1G peptide used as a positive control (Fig 4B). […] Compound 24 contains a promiscuous maleimide, which is well known to react indiscriminately with proteins.
GST-, VF-tagged human SYK and FCER1G plasmids for mammalian expression were generated using Gateway cloning technology (Invitrogen) as described previously. The DNA was purified using ZymoPURE Plasmid Maxiprep Kit (D4203, Zymo Research).
WB secondary antibodies: peroxidase-conjugated AffiniPure Goat Anti-Mouse IgG (H+L) (115-035-003, Jackson Immuno Research) 1:5000 dilution in TBST. GST pulldown was performed as described with minor changes. HEK293T (CRL-3216, ATCC) were cultured in Dulbecco’s modified Eagle’s medium with 4.5 g/L glucose, L-glutamine, and sodium pyruvate (10–013-CV, Corning) supplemented with 10% fetal bovine serum and 1% penicillin/streptomycin solution (30–002-CI, CellGro). Cells were incubated at 37°C in humidified conditions with 5% CO2. The HEK293T cells were transfected using 1 mg/mL Polyethylenimine (PEI; 23966, Polysciences) in a ratio of 3 μL to 1 μg DNA. The proteins were expressed for 48 h at 37°C. Cell pellets were re-suspended in the SYK lysis buffer (25 mM HEPES, pH 7.5, 200 mM NaCl, 0.5% Triton X100 (T9284-1L, Sigma-Aldrich), followed by sonication for 10 s (5 s on, 5 s off) at 4°C. Cells were pelleted by 10 min centrifugation at 13,000 rpm at 4°C. The cleared lysates were first pre-incubated with compounds for 30 min and then incubated with glutathione sepharose 4B beads (17075605, Cytiva Sweden AB) at 4°C for 2 h with rotation. After the incubation, beads were washed three times with the SYK lysis buffer, eluted by boiling in sodium dodecyl sulfate-polyacrylamide gel electrophoresis (SDS–PAGE) loading buffer (1610737, Bio-Rad), and analyzed by western blotting.

[9] = target: MSN (Homo sapiens, UniProt P26038); assay: Covalent labelling and intact mass spectrometry (selectivity); conditions: 1 h, room temperature
Sequence of MSN (P26038 whole entry, species assumed): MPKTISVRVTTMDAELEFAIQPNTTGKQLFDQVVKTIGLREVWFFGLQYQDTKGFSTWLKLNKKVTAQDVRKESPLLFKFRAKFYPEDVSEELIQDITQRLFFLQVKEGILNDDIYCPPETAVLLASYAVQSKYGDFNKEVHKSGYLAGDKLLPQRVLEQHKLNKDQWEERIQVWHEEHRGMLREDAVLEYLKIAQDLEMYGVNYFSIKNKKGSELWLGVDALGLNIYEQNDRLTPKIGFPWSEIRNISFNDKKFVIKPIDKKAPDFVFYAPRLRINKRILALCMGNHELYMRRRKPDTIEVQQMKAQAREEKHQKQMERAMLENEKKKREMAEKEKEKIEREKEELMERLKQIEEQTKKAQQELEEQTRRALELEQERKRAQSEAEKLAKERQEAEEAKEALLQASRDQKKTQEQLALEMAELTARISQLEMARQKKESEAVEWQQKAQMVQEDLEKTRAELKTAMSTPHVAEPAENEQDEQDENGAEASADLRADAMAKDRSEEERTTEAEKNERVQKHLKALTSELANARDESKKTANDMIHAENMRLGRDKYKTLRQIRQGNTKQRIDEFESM

O=[N+]([O-])c1c(NCCO)cc(Cl)c2nonc12 [compound 1]
Inhibition of p-ITAM binding with mutated SYK-tSH2 ([1]; Cys206 mutated to serine or alanine): complete loss of inhibition
Disruption of SYK-tSH2 binding to doubly phosphorylated ITAM ([1]; fluorescence polarization inhibition assay): disrupt the binding
Number of cysteines on SYK-tSH2 bound [2]: 4
Number of mass adducts on SYK-tSH2 ([3]; 1 h, room temperature): one or two
Interference with the TR-FRET assay [4]: quenching the TR-FRET donor signal

Cn1c(=O)c2[nH]c(=S)[nH]c2n(C)c1=O [compound 42, 1,3-dimethyl-8-thioxo-3,7,8,9-tetrahydro-1H-purine-2,6-dione]
Kd [5]: 99 ± 0.8 µM
Stability in DMSO stock solution [6]: had formed corresponding disulfide dimers in DMSO over time
Covalent modification of SYK-tSH2 ([3]; 1 h, freshly prepared DMSO stock): did not form a covalent adduct
Number of mass adducts on SYK-tSH2 ([3]; 1 h, older DMSO stock solution): two
Covalent modification of SYK-tSH2 ([3]; 1 h, older DMSO stock solutions): covalently modifies SYK-tSH2
solubility kinetic at 24 h [7]: 208 µM (≈ 44.1 µg/mL)
IC50 [4]: 1.9 ± 0.2 µM

Cn1c(=O)c2[nH]c(SSc3nc4c([nH]3)c(=O)n(C)c(=O)n4C)nc2n(C)c1=O [compound 44, 8,8’-disulfanediylbis(1,3-dimethyl-3,7-dihydro-1H-purine-2,6-dione)]
PPI disruption in GST-PD [8]: disrupted the PPI; also recorded: able to disrupt the full-length interaction
melting point: > 300 °C
Compound concentration giving 50% labeling of SYK-tSH2 ([3]; 10 μM SYK-tSH2, dose-response by mass spectrometry): 30 µM
Mass adducts on SYK ([3]; 30 μM, 1 h, room temperature): same formation of mass adducts as 100 μM incubation
Number of mass adducts on SYK-tSH2 ([3]; 1 h, room temperature): two to four
solubility kinetic at 24 h [7]: 70.9 µM (≈ 30 µg/mL)
Mass adducts on MSN ([9]; 30 μM): same formation of mass adducts as 100 μM incubation
Number of mass adducts on MSN ([9]; 100 μM, four available cysteines): two mass adducts
